# From publication PMC7939384, “In crystallo screening for proline analog inhibitors of the proline cycle enzyme PYCR1” (The Journal of Biological Chemistry, 2021)
# Values joined by “and” are separate entries in the source; they are usually repeats but may differ in a detail not shown here. Identical values can stand only once.
# Experiments:
# human PYCR1 = target: T1, human PYCR1 (Homo sapiens, UniProt P32322); assay: biochemical; conditions: for Ki: competitive with P5C, NADH fixed 175 μM
# T1 sequence (P32322 1-300): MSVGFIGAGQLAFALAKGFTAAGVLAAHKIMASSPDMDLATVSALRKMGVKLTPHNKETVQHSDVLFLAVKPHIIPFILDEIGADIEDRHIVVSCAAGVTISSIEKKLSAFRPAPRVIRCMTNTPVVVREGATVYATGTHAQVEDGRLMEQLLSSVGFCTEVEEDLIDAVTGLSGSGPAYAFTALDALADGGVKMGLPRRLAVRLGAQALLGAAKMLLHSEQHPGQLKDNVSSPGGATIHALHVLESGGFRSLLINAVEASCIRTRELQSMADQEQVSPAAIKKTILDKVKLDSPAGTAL
# Method: Over two dozen proline analogs (Fig. 2) were screened using electron density from X-ray crystallography as the readout for binding to human PYCR1. […] Because the compounds bind in the P5C/proline site, the mechanism of inhibition was assumed to be competitive with P5C. Therefore, steady-state kinetic measurements were performed with L-P5C as the variable substrate (0-1000 μM) and NADH fixed (175 μM) (Fig. 3). For each compound, the data were fit globally to a competitive inhibition model (Equation 1) to obtain an inhibition constant, Ki.
# B, THFA. C, CPC. D, T4C. E, T2C. F, NFLP. The data were measured in 50 mM Tris (pH 7.5) with 1 mM EDTA disodium salt while holding NADH fixed at 175 μM and varying D,L-P5C (0–2000 μM). The concentration of the substrate L-P5C was considered to be half the total D,L-P5C concentration added to the assays. Curves represent global fits of the data to a competitive inhibition model showing initial velocity in units of µM [NAD^+] s^−1 as a function of L-P5C concentration (µM).
# A C-terminal truncation variant of human PYCR1, which includes residues 1–300 of the full-length 319-residue enzyme, was used for kinetics and X-ray crystallography ([18]). PYCR1 was overexpressed in Escherichia coli BL21 (DE3) competent cells and purified using methods similar to those previously reported ([18]). Harvested cells were lysed via sonication in a mixture containing DNase I, lysozyme, and 0.2 mM phenylmethylsulfonyl fluoride protease inhibitor, and then the insoluble material was removed via centrifugation at 16,000 rpm for 1 h at 4°C. The resulting lysate was purified by gravity-flow chromatography on a column containing Ni^2+–nitrilotriacetic acid resin (Qiagen) pre-equilibrated with binding buffer consisting of 50 mM HEPES, 300 mM NaCl, 10 mM imidazole, and 5% (w/v) glycerol at pH 7.8 (buffer A). The column was washed with buffer A supplemented with 30 mM imidazole, and then the bound protein was eluted with buffer A supplemented with 300 mM imidazole. Elution fractions containing PYCR1 were identified by SDS-PAGE and prepared for further purification by size-exclusion chromatography by dialyzing into 300 mM NaCl, 2% (w/v) glycerol, and 50 mM HEPES at pH 7.5. Size-exclusion chromatography was performed on a HiLoad 16/600 Superdex 200 column equilibrated with 50 mM HEPES, pH 7.8, 300 mM NaCl, and 5% (w/v) glycerol. Purified PYCR1 was concentrated to 8 mg/ml and stored at 4°C for subsequent crystallization trials.
# Kinetic measurements were performed in a BioTek Epoch 2 microplate spectrophotometer using Corning 96-well UV-transparent microplates. Activity assays were performed by monitoring the consumption of NADH at 340 nm (ε340 = 6220 M^−1 cm^−1) using P5C as the substrate. D,L-P5C was synthesized as described previously ([45]), quantified using o-aminobenzaldehyde (o-AB), and stored in 1 M HCl at 4°C. Neutralization of D,L-P5C to pH 7.5 was performed immediately prior to assays using 1 M Tris (pH 7.5) and 6 M NaOH. The concentration of the substrate L-P5C was assumed to be half the total D,L-P5C concentration added to the assays.
# The following microplate protocol was employed. Substrate mixtures containing P5C, NADH, EDTA, and Tris buffer were prepared in a deep well block for each P5C concentration. Mixtures containing enzyme and various concentrations of the inhibitor were prepared in microcentrifuge tubes and incubated on ice in buffer containing 50 mM HEPES pH 7.8, 300 mM NaCl, and 5% (w/v) glycerol. The final concentration of PYCR1 in the assay was 6.25 nM. Twenty μl of the enzyme-analog mixture was added to microplate wells using a single-channel pipette, and then the reaction was initiated by addition of 180 μl of the substrate mixtures using a multi-channel pipettor. The reaction traces were followed for 35 min.
# [1] = tested on: MCF10A hRAS^V12 spheroids; assay: Intracellular proline abundance in spheroids (GC-MS); type: cell-based; conditions: 5 mM, 5 days
# [2] = target: T2, E. coli PutA PRODH domain (EcPutA86-630) (Escherichia coli, UniProt P09546); assay: PRODH activity assay (o-AB/P5C adduct at 443 nm); type: biochemical; conditions: 100 mM NFLP as substrate; 0, 1, 5 or 10 mM NFLP with 100 mM L-proline
# T2 construct: Proline Utilization A from E. coli (EcPutA86-630)
# T2 sequence (P09546 86-630): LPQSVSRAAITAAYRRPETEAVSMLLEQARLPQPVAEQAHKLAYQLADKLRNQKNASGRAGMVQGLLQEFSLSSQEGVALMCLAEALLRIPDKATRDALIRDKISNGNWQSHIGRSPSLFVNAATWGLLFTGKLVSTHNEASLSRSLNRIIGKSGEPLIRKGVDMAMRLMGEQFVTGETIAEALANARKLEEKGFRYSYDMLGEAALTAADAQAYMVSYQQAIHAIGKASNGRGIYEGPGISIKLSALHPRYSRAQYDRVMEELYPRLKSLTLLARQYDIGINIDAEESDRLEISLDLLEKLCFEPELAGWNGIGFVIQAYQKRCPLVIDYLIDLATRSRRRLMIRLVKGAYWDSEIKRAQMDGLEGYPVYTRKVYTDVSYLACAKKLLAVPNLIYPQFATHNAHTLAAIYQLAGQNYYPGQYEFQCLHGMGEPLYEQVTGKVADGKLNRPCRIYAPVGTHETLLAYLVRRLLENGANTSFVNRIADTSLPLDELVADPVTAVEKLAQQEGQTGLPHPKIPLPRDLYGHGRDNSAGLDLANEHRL
# Method: The rates have been normalized to the rate obtained in the absence of NFLP.
# Assays were performed to test whether NFLP is a substrate or inhibitor of PRODH. Because of challenges in obtaining active recombinant human PRODH, which is an inner mitochondrial membrane protein, these experiments used the PRODH domain of the bifunctional proline catabolic enzyme, Proline Utilization A from E. coli (EcPutA86-630). The active sites of human and bacterial PutA PRODH domains are very highly conserved. For example, all residues that contact proline analog inhibitors in crystal structures of bacterial PRODHs are identically present in human PRODH, as we described previously ([6]). Thus, bacterial PRODHs are considered to be good surrogates for identifying inhibitors of human PRODH. Indeed, the inhibitors discovered using bacterial PRODHs show on-target activity in cancer cells and animal models of cancer ([5], [21]).
# PRODH activity was measured in a BioTek Epoch 2 microplate spectrophotometer by monitoring P5C as the adduct formed by the reaction with o-AB at 443 nm. The assays were conducted at 25°C in 20 mM MOPS, pH 7.5, and 10 mM MgCl2 with 4 mM o-AB, 0.15 mM menadione (electron acceptor to re-oxidize the FAD), and 1.3 μM of EcPutA86-630. The enzyme mixture contained EcPutA86-630, o-AB, menadione, and buffer. […]
structure (smiles),measurement,setting,value
"O=CN1CCC[C@H]1C(=O)O [NFLP, N-formyl L-proline]",Ki,"human PYCR1; Ki (estimated), rounded values",100 µM and ~100 µM
same,Ki,"human PYCR1; Ki, 50 mM Tris pH 7.5, global fit",99 ± 7.7 µM
same,binding free energy equivalent of the affinity increase,human PYCR1; NFLP relative to proline,~1.7 kcal/mol
same,increase in affinity by addition of the formyl group to proline,human PYCR1; NFLP relative to proline,17 fold
same,kcat,"human PYCR1; kcat for L-P5C at fixed NADH 175 μM, global fit of the data set with this analog",52 ± 2 s⁻¹
same,increase of intracellular proline abundance compared with THFA,[1],about 10 fold
same,increase of intracellular proline abundance compared with control,[1],~40 fold
same,substrate or inhibitor of bacterial PRODH (in words),[2],neither a substrate nor an inhibitor
